Test [1] has as its system RKO human colon cancer cell line. Kind of test: Trypan blue staining apoptosis assay. The format is cell-based. The note with it: RKO (p53 WT/LIG4 MT); 25 μM and 50 μM, 48 hours. The text has this:
(§1) In order to analyze the degree of apoptosis of Compound A, which is a novel PARP/Tankyrase simultaneous inhibitor according to a p53 genotype and LIG4 genotype, the present inventors treated a novel PARP/Tankyrase simultaneous inhibitor, Compound A, and a competitive drug PARP inhibitor, olaparib, in RKO, LoVo human colon cancer cell line in which the p53 gene is a normal type and the LIG4 gene is a mutant type and an SW620 human colon cancer cell line in which the p53 gene is a mutant type and the LIG4 gene is a normal type. The number of cells was measured by trypan blue staining assay to confirm the degree of apoptosis. The conditions and methods of the experiment were as follows: RKO, LoVo human colon cancer cell line in which the p53 gene is a normal type and the LIG4 gene is a mutant type and the SW620 human colon cancer cell line in which the p53 gene is a mutant type and the LIG4 gene is a normal type were cultured in RPMI1640 (10% FBS, 1% penicillin/streptomycin) and cultured in a 60 mm plate at 1×10^5 per well for 24 hours at 37° C. Compound A, which is a novel PARP/Tankyrase simultaneous inhibitor, and olaparib, which is a competitive drug PARP inhibitor, were treated with each of 25 μM and 50 μM and were cultured for 48 hours. The number of cells was measured by trypan blue staining assay to confirm the degree of apoptosis.
In order to analyze the degree of apoptosis of Compound A, which is a novel PARP/Tankyrase simultaneous inhibitor, according to the p53 genotype and an LIG4 genotype, the present inventors treated Compounds A and B, which are novel PARP/Tankyrase simultaneous inhibitors, in the RKO and LoVo human colon cancer cell lines in which the p53 gene is a normal type and an LIG4 gene is a mutant type. Then, the number of cells was measured by trypan blue staining assay to confirm the degree of apoptosis. The RKO and LoVo human colon cancer cell lines were cultured under the same conditions as in Example 5. Compounds A and B, which are novel PARP/Tankyrase simultaneous inhibitors, were treated with 25 μM and 50 μM, respectively, for 48 hours. After 48 hours of culturing, the number of cells was measured by trypan blue staining assay to confirm the degree of apoptosis. […]

For test [2], the system named is KM12C human colon cancer cell line. Kind of test: Xenograft tumor inhibition. The class given is in vivo, nude mouse (BALB/c-nude). Particulars: KM12C (p53 MT/LIG4 MT) xenograft, orally 25 mpk and 50 mpk daily.
Source text: (§2) In order to analyze the tumor inhibition effect on Compound A, which is a novel PARP/Tankyrase simultaneous inhibitor, in an in vivo animal model when a p53 genotype and an LIG4 genotype are mutant types, the present inventors transplanted the KM12C human colon cancer cell line in which a p53 genotype and an LIG4 genotype are mutant types into a 6-week-old nude mouse (BALB/c-nude, purchased from the central experimental animal) and administered with Compound A, which is a novel PARP/Tankyrase simultaneous inhibitor, and olaparib, which is a competitive drug PARP inhibitor. Then, the size of tumor was measured to confirm the degree of tumor inhibition effect. The conditions and methods of the experiment were as follows: KM12C human colon cancer cell line in which a p53 genotype and an LIG4 genotype are mutant types was cultured in RPMI1640 (10% FBS, 1% penicillin/streptomycin). When the size of the tumor reached 100 mm^3 after being transplanted into a nude mouse per 1×10^7, Compound A, which is a novel PARP/Tankyrase simultaneous inhibitor, and olaparib, which is a competitive drug PARP inhibitor, were orally administered at 25 mpk and 50 mpk daily for a total of 18 days. The size of a tumor was measured every three days. After the completion of drug administration, the tumors were harvested and weighed.
as §2, with “on Compound B, which is” for “on Compound A, which is”, “with Compound B, which is” for “with Compound A, which is”, “PARP/Tankyrase simultaneous inhibitor. Then,” for “PARP/Tankyrase simultaneous inhibitor, and olaparib, which is a competitive drug PARP inhibitor. Then,”, “1×10^7, Compound B, which is” for “1×10^7, Compound A, which is”, “simultaneous inhibitor, was orally administered” for “simultaneous inhibitor, and olaparib, which is a competitive drug PARP inhibitor, were orally administered”, “total of 15 days. The” for “total of 18 days. The”

Test [3] has as its system LoVo human colon cancer cell line. Kind of test: Trypan blue staining apoptosis assay. The format is cell-based. The note with it: LoVo (p53 WT/LIG4 MT); 25 μM and 50 μM, 48 hours.
Source text: as §1
In order to analyze the degree of apoptosis of Compound A, which is a novel PARP/Tankyrase simultaneous inhibitor, according to the p53 genotype and an LIG4 genotype, the present inventors treated Compounds A and B, which are novel PARP/Tankyrase simultaneous inhibitors, in the RKO and LoVo human colon cancer cell lines in which the p53 gene is a normal type and an LIG4 gene is a mutant type. Then, the number of cells was measured by trypan blue staining assay to confirm the degree of apoptosis. The RKO and LoVo human colon cancer cell lines were cultured under the same conditions as in Example 5. […] After 48 hours of culturing, the number of cells was measured by trypan blue staining assay to confirm the degree of apoptosis.

Test [4] relates to SW620 human colon cancer cell line. The test is described as follows: Trypan blue staining apoptosis assay. The format is cell-based. The note with it: SW620 (p53 MT/LIG4 WT); 25 μM and 50 μM, 48 hours.
Source text: as §1
(§3) In order to analyze the degree of apoptosis of Compounds A and B, which are novel PARP/Tankyrase simultaneous inhibitors, in a cell line RKO in which the p53 genotype is a normal type and an LIG4 genotype is a mutant type, a cell line SW620 in which the p53 genotype is a mutant type and an LIG4 genotype is a normal type, a cell line HCT8 in which the p53 genotype and an LIG4 genotype are normal, and a cell line KM12C in which the p53 genotype and an LIG4 genotype are mutant, the human colon cancer cell lines of RKO, HCT, SW620 and KM12C with different p53 genotype and LIG4 genotype were cultured in RPMI1640 (10% FBS, 1% penicillin/streptomycin) and cultured in a 60 mm plate at 1×10^5 per well for 24 hours at 37° C. Compounds A and B, which are novel PARP/Tankyrase simultaneous inhibitors, and olaparib, which is a competitive drug PARP inhibitor, and NVP-TNKS656, which is a Tankyrase inhibitor, were treated with each of 25 μM and 50 μM. After 48 hours of culturing, the number of cells was measured by trypan blue staining assay to confirm the degree of apoptosis.

Test [5] relates to KM12C human colon cancer cell line. The test is described as follows: Trypan blue staining apoptosis assay. The class given is cell-based. The note with it: KM12C (p53 MT/LIG4 MT); 25 μM and 50 μM, 48 hours.
Source text: as §3

Test [6] concerns HCT8 human colon cancer cell line. Kind of test: Trypan blue staining apoptosis assay. The format is cell-based. The note with it: HCT8 (p53 WT/LIG4 WT); 25 μM and 50 μM, 48 hours.
Source text: as §3

SMILES strings stand for the structures. Entries after “also recorded” stand apart in the source; their conditions may differ.

On to `CCOc1cc(CN(C)C)cc2[nH]c(=O)c3c(c12)NCCC3` [Compound A, 8-[(dimethylamino)methyl]-10-ethoxy-1,2,3,4-tetrahydrobenzo[h][1,6]naphthyridin-5(6H)-one], for which the “degree of apoptosis (trypan blue cell count)” value (from here on “degree of apoptosis”) in test [1] is recorded as “apoptosis was induced; also recorded: possible to observe the apoptosis”; in test [3] it was “apoptosis was induced”; in test [4] it was “low apoptosis effect; also recorded: No apoptosis occurred”; in test [5] it was “No apoptosis occurred”; in test [6], “No apoptosis occurred”. In test [2] (18 days), the tumor size entry is given as “no change”. For the same compound, in test [2] (18 days), the tumor weight entry was “no change”.

As for `N#Cc1ccc(N2CCN(Cc3ccc4c5c(c(=O)[nH]c4c3)CCCN5)CC2)nc1` [Compound B, 6-{4-[(5-oxo-1,2,3,4,5,6-hexahydrobenzo[h][1,6]naphthyridin-8-yl)methyl]piperazin-1-yl}nicotinonitrile], the “degree of apoptosis” value is reported as “apoptosis effect is high by virtue of Compound B as compared to Compound A; also recorded: possible to observe the apoptosis” in test [1]; “apoptosis effect is high by virtue of Compound B as compared to Compound A” in test [3]; “No apoptosis occurred” in test [4]; “No apoptosis occurred” in test [5]; “No apoptosis occurred” in test [6]. The tumor size entry in test [2] (15 days) is reported as “no change”. For the same compound, the tumor weight entry in test [2] (15 days) is on record as “no change”.

Consider `O=C(c1cc(Cc2n[nH]c(=O)c3ccccc23)ccc1F)N1CCN(C(=O)C2CC2)CC1` [olaparib, reference compound], for which the “degree of apoptosis” value is listed as “no apoptosis effect was shown; also recorded: no change in apoptosis” in test [1]; “no apoptosis effect was shown” in test [3]; “low apoptosis effect; also recorded: No apoptosis occurred” in test [4]; “No apoptosis occurred” in test [5]; “No apoptosis occurred” in test [6]. Further, the tumor size result in test [2] (18 days) was “no change”. Besides, the tumor weight result in test [2] (18 days) is “no change”.

The values above are taken from US10683553B2, “Method for determining sensitivity to simultaneous inhibitor against PARP and Tankyrase” (THE ASAN FOUNDATION, priority 2015, dated 2020).
